According to paper PMC8022858, “Discovery of bone morphogenetic protein 7-derived peptide sequences that attenuate the human osteoarthritic chondrocyte phenotype” (Molecular Therapy. Methods & Clinical Development, 2021):

Tests used:
[1] = tested on: human OA infra-patellar fat pad (IPFP) explants; assay: PGE2 levels in culture supernatant of IPFP explants; assay type: cell-based; details: n = 5 donors, 24 h, relative to control (Figure 6E)
Protocol: (§1) Figure 6 Peptide p[63−82] activity on OA knee joint tissues Human OA knee joint tissues were cultured for 24 h in the presence of BMP7, peptide p[63−82], or the scrambled version of peptide p[63−82] and compared to control conditions. (A) Cartilage tissues (n = 7 individual donors) were exposed to shown conditions and analyzed for COL2A1, COL10A1, and COX-2 mRNA expression by quantitative real-time PCR (normalized for 28S rRNA expression and relative to control conditions). (B) GAG release in medium from cartilage tissues (n = 5 individual donors) was determined, and data were calculated relative to the control condition. (C) PGE2 levels in culture supernatant from synovium (n = 5 donors). (D) PGE2 levels in culture supernatant from cartilage tissues from (B) (n = 5 donors). (E) PGE2 levels in culture supernatant from IPFP (n = 5 donors). (F) PGE2 levels in culture supernatant from the meniscus. Synovium, IPFP, and meniscus tissues were from the same 5 donors as the cartilage tissues in (B) and (C). PGE2 levels in conditions were calculated relative to controls for each donor. In graphs, error bars represent mean ± SEM; data are presented relative to the control condition for each time point. Statistical differences (unpaired two-tailed Student’s t test) were calculated to control condition: ∗p < 0.05, ∗∗p < 0.01, and ∗∗∗p < 0.001. […]

OA-HACs = assay: PGE2 EIA in OA-HAC culture supernatant; assay type: cell-based, human; details: three individual OA-HAC donors, 100 nM peptide, 24 h (Figure 2F)
Protocol: Figure 2 Bioactivity of BMP7-derived peptides p[63−82] and p[113−132] on OA-HACs Complete peptide library screening quantitative real-time PCR dataset for peptides p[63−82] and p[113−132] is presented. (A) SOX9, COL2A1, and NKX3-2 mRNA expression in the 18 OA-HAC pool exposed to 1,000, 100, 10, or 1 nM of peptide p[63−82] and p[113−132] is shown and presented relative to control (black bars) and alongside full-length BMP7 (white bars). (B) Similar to (A) but for chondrocyte hypertrophy-associated genes RUNX2, COL10A1, and ALPL. (C) Similar to (A) but for cartilage extracellular matrix remodeling-associated genes MMP13 and ADAMTS5 and inflammation-related genes COX-2 and IL-6. […] (G) In the same OA-HAC pool of 18 OA-HAC donors from the peptide library screening, sequence dependency of peptides p[63−82] and p[113−132] was determined by exposing the OA-HAC pool to scrambled versions of peptides p[63−82] and p[113−132] […] Error bars represent mean ± SEM, and statistical significance for peptide conditions or BMP7 versus control condition as determined by unpaired two-tailed Student’s t test is represented as ∗p < 0.05, ∗∗p < 0.01, and ∗∗∗p < 0.001.
PGE2 levels were determined in the culture supernatant. PGE2 concentration was determined by a standardized enzyme immunoassay (EIA) according to the manufacturer’s protocol (Cayman Chemical).

[2] = tested on: human OA synovium explants; assay: PGE2 levels in culture supernatant of synovium explants; assay type: cell-based; details: n = 5 donors, 24 h, relative to control (Figure 6C)
Protocol: as §1

[3] = tested on: human OA meniscus explants; assay: PGE2 levels in culture supernatant of meniscus explants; assay type: cell-based; details: 24 h, relative to control (Figure 6F)
Protocol: as §1

Row | Substance | PGE2 levels from IPFP explants [1] | prostaglandin E2 (PGE2) levels in culture supernatant (OA-HACs) | PGE2 levels in culture supernatants of synovial explants [2] | PGE2 levels from meniscus explants [3]
1 | H-AAYYSEGESAFPLNSYMNAT-OH [p[63−82]] | reduced | significant decrease | not significantly changed | reduced
2 | BMP7: full-length recombinant bone morphogenetic protein 7 (R&D Systems), used at 1 nM | reduced |  | not significantly changed | reduced
3 | H-SVLYFDDSSNVILKKYRNMV-OH [p[113−132]] |  | significant decrease |  | 
